Test results: US9688689B2, “Compounds and compositions for inducing chondrogenesis” (Novartis AG, priority 2014, dated 2017)

Test system: Primary articular chondrocytes from normal bovine knees
Test: NO Release Assay in Bovine Chondrocytes (inhibition of cytokine induced NO release, Greiss reagent)
Type: cell-based
Conditions: Bos taurus, Chondrocyte; 20 ng/ml TNFα and 10 ng/ml human oncostatin M, 48 hours; read-out: NO Inh. IC50
Experimental: The compounds of the present invention were evaluated in two functional assays to assess their chondrogenesis activities (Type II Collagen Expression) and chondrocyte protective activities (NO release assay).
The assay was described in Johnson, K., et al., (2012) Science 336, 717-721. Chondrocytes release NO during OA pathogenesis. This assay measures the inhibition of nitric oxide release by the treated compound (an indicator of chondro-protection) Primary articular chondrocytes from normal bovine knees (Animal Technologies, Tyler, Tex.) were isolated after dissection and collagenase digestion (Worthington Biochemical) of the tibial plateau and femoral condyle articular cartilage. The cells were initially plated at 80-90% confluency after isolation. Primary chondrocytes were cultured in high-glucose Dulbecco's modified Eagle's medium (DMEM) supplemented with 10% fetal bovine serum (FBS), 1% L-glutamine, 100 units/ml of penicillin, and 50 μg/ml of streptomycin (Life Technologies, Carlsbad, Calif.) and maintained at 37° C. in the presence of 5% CO2 for 7 days prior to initiation of each experiment. During the 7-day culture period, the cells adhered and established a chondrocyte-like appearance that was maintained throughout the experimental period. Functional studies on chondrocytes were performed in high-glucose DMEM with no FBS unless indicated otherwise.
After one week of culture, 8500 cells were plated per well in Greiner 384 well white clear bottom plates in growth media. Following 24 hours of culture, the media was removed and replaced with serum free DMEM containing 20 ng/ml TNFα and 10 ng/ml human oncostatin M (inflammatory mediators). […] 20 μl of the supernatant was mixed with 20 μl of the Greiss reagent (Promega # G2930) and quantitated at 540 nm. The Greiss reagent part A (1% Sulfanilamide in 5% phosphoric acid) was mixed at a 1:1 ration with Greiss reagent part B (0.1% N-1-napthylethylenediamine dihydrochloride in water) immediately prior to added to the culture supernatant.

Compound	IC50
O=C(Nc1ccc(Cl)c(Cl)c1)[C@@H]1[C@@H](c2ccncc2)[C@@H]2CC[C@H]1O2 (single isomer, unassigned) [Compound 71]	> 29 µM
O=C(Nc1ccc(Cl)c(Cl)c1)[C@H]1[C@H](c2ccncc2)[C@H]2CC[C@@H]1O2 (single isomer, unassigned) [Compound 103]	> 29 µM
Nc1cc([C@@H]2[C@@H](C(=O)Nc3ccc(Cl)c(Cl)c3)[C@H]3CC[C@@H]2O3)ccn1 (single isomer, unassigned) [Compound 107]	> 33 µM
Nc1cc([C@@H]2[C@H](C(=O)Nc3ccc(Cl)c(Cl)c3)[C@H]3CC[C@@H]2O3)ccn1 (single isomer, unassigned) [Compound 115]	26 µM
CCOC(=O)c1ccccc1NC(=O)[C@H]1[C@@H](c2nc(-c3ccc(Cl)cc3)no2)[C@@H]2CC[C@H]1O2 [Compound 2]	> 30 µM
Nc1cc([C@@H]2[C@@H](C(=O)Nc3ccc(Cl)c(Cl)c3)[C@H]3CC[C@@H]2O3)ccn1 [Compound 5]	16 µM
O=C(Nc1ccc(Cl)c(Cl)c1)[C@@H]1[C@H](c2ccncc2)[C@H]2CC[C@@H]1O2 [Compound 8]	> 33 µM
COC(=O)c1cc(-c2ccccc2)ccc1NC(=O)[C@H]1[C@@H](c2nc(-c3ccc(Cl)cc3)no2)[C@@H]2CC[C@H]1O2 [Compound 9]	> 11.1 µM
Nc1cc([C@H]2[C@H](C(=O)Nc3ccc(Cl)c(Cl)c3)[C@@H]3CC[C@H]2O3)ccn1 [Compound 10]	22 µM
O=C(Nc1ccc(Cl)c(Cl)c1)[C@H]1[C@@H](c2ccncc2)[C@@H]2CC[C@H]1O2 [Compound 11]	> 33 µM
CCOC(=O)c1ccc(NC(=O)[C@H]2[C@@H](c3nc(-c4ccc(Cl)cc4)no3)[C@@H]3CC[C@H]2O3)cc1 [Compound 17]	> 11.1 µM
O=C(Nc1ccc(Cl)c(F)c1)[C@@H]1[C@H](c2ccncc2)[C@@H]2CC[C@H]1O2 [Compound 18]	> 33 µM
N#Cc1cc([C@H]2[C@@H](C(=O)Nc3ccc(-c4ccccc4F)c(F)c3)[C@H]3CC[C@@H]2O3)ccn1 [Compound 20]	> 33 µM
COC(=O)c1cc(Cl)ccc1NC(=O)[C@H]1[C@H](c2ccncc2)[C@@H]2CC[C@H]1O2 [Compound 24]	> 33 µM
O=C(Nc1ccc(-c2ccccc2Cl)c(F)c1)[C@H]1[C@H](c2ccncc2)[C@@H]2CC[C@H]1O2 [Compound 26]	> 3.4 µM
O=C(Nc1ccc(-c2ccccc2F)c(Cl)c1)[C@@H]1C(c2cccc(C(F)(F)F)n2)[C@@H]2CC[C@H]1O2 (stereo partly drawn) [Compound 27]	> 33 µM
O=C(Nc1ccc(-c2ccccc2Cl)c(F)c1)C1=C(c2ccnn2C2CCOCC2)[C@@H]2CCC1O2 [Compound 31]	> 33 µM
Cc1cc(C2=C(C(=O)Nc3ccc(-c4ccccc4F)c(F)c3)C3CC[C@@H]2O3)ccn1 [Compound 32]	> 27 µM
O=C(Nc1ccc(Cl)c(F)c1)[C@H]1[C@H](c2ccncc2)[C@@H]2CC[C@H]1O2 [Compound 33]	> 33 µM
O=C(Nc1cnc(-c2ccccc2)nc1)C1=C(c2ccncc2)C2CCC1O2 (stereo not drawn) [Compound 38]	> 33 µM

Compound	IC50
O=C(Nc1ccc(-c2ccccc2)c(Cl)c1)[C@H]1[C@H](c2ccncc2)[C@@H]2CC[C@H]1O2 [Compound 39]	> 33 µM
O=C(Nc1cccc(Cl)c1F)[C@H]1[C@H](c2ccncc2)[C@@H]2CC[C@H]1O2 [Compound 41]	> 33 µM
CCOC(=O)c1ccc(NC(=O)C2=C(c3cccc(C(F)(F)F)n3)[C@@H]3CCC2O3)cc1F [Compound 43]	> 33 µM
O=C(Nc1ccc(-c2ccccc2F)c(F)c1)C1=C(c2ccnc(Cl)c2)[C@@H]2CCC1O2 [Compound 44]	28 µM
O=C(Nc1ccc(-c2ccccc2)c(Cl)c1)C1=C(c2ccn[nH]2)[C@@H]2CC[C@H]1O2 [Compound 47]	18 µM
Nc1cc(C2=C(C(=O)Nc3ccc(-c4ccccc4F)c(F)c3)C3CC[C@@H]2O3)ccn1 [Compound 49]	> 33 µM
O=C(Nc1ccc(-c2ccccc2)c(Cl)c1)C1=C(c2ccnn2C2CCOCC2)[C@@H]2CCC1O2 [Compound 50]	14 µM
O=C(Nc1cccc(OC(F)(F)F)c1F)C1=C(c2ccncc2)[C@@H]2CCC1O2 [Compound 51]	26 µM
O=C(Nc1ccc(-c2ccccc2F)c(F)c1)[C@H]1[C@H](c2ccncc2)[C@@H]2CC[C@H]1O2 [Compound 52]	> 33 µM
COC(=O)c1cc(Cl)ccc1NC(=O)C1=C(c2ccncc2)[C@@H]2CCC1O2 [Compound 54]	> 33 µM
N#Cc1cc(C2=C(C(=O)Nc3ccc(-c4ccccc4F)c(F)c3)C3CC[C@@H]2O3)ccn1 [Compound 56]	> 33 µM
Cc1cc(NC(=O)C2=C(c3ccncc3)[C@@H]3CCC2O3)nn1-c1ccccc1 [Compound 61]	> 33 µM
O=C(Nc1ccc(-c2ccccc2F)c(F)c1)C1=C(c2ccnn2C2CCOCC2)C2CCC1O2 (stereo not drawn) [Compound 62]	15 µM
Nc1cc([C@H]2[C@@H](C(=O)Nc3ccc(-c4ccccc4F)c(F)c3)[C@H]3CC[C@@H]2O3)ccn1 [Compound 64]	> 33 µM
Cn1cc2cc([C@H]3[C@@H](C(=O)Nc4ccc(-c5ccccc5F)c(F)c4)[C@H]4CC[C@@H]3O4)ccc2n1 [Compound 65]	> 33 µM
CCOC(=O)c1ccc(NC(=O)C2=C(c3ccncc3)C3CCC2O3)cc1F (stereo not drawn) [Compound 67]	> 33 µM
Cc1cc([C@@H]2[C@@H](C(=O)Nc3ccc(Cl)c(Cl)c3)[C@H]3CC[C@@H]2O3)ccn1 [Compound 69]	21 µM
O=C(Nc1ccc(-c2ccc(F)cc2F)c(F)c1)[C@H]1[C@H](c2ccncc2)[C@@H]2CC[C@H]1O2 [Compound 70]	> 33 µM
O=C(Nc1ccc(-c2ccccc2)cc1)[C@@H]1[C@H](c2ccncc2)[C@@H]2CC[C@H]1O2 [Compound 74]	> 33 µM
O=C(Nc1ccc(-c2ccccc2Cl)c(F)c1)[C@@H]1[C@@H](c2ccncc2)[C@@H]2CC[C@H]1O2 [Compound 76]	> 33 µM

Compound	IC50
CN(C)c1ncc([C@H]2[C@@H](C(=O)Nc3ccc(-c4ccccc4F)c(F)c3)[C@H]3CC[C@@H]2O3)cn1 [Compound 78]	0.24 µM
O=C(Nc1ccc(-c2ccccc2F)c(F)c1)[C@@H]1[C@@H](c2ccccn2)[C@@H]2CC[C@H]1O2 [Compound 80]	> 17 µM
O=C(Nc1ccc(-c2ccccc2)c(Cl)c1)[C@@H]1[C@@H](c2cccc(C(F)(F)F)n2)[C@@H]2CC[C@H]1O2 [Compound 83]	> 33 µM
O=C(Nc1ccc(-c2ccccc2F)c(F)c1)[C@@H]1[C@@H](c2cccc(C(F)(F)F)n2)[C@@H]2CC[C@H]1O2 [Compound 86]	> 33 µM
O=C(Nc1ccc(-c2ccccc2F)c(F)c1)[C@@H]1[C@H](c2cc(Cl)nc(Cl)c2)[C@@H]2CC[C@H]1O2 [Compound 87]	> 33 µM
Cn1nc(C(F)(F)F)cc1[C@@H]1[C@@H](C(=O)Nc2ccc(Cl)c(Cl)c2)[C@H]2CC[C@@H]1O2 [Compound 89]	> 33 µM
O=C(Nc1ccc(Cl)c(Cl)c1)[C@@H]1[C@@H](c2cccc(C(F)(F)F)n2)[C@@H]2CC[C@H]1O2 [Compound 92]	> 33 µM
C[C@]12CC[C@](C)(O1)[C@@H](c1ccncc1)[C@H]2C(=O)Nc1ccc(-c2ccccc2F)c(F)c1 [Compound 93]	> 33 µM
O=C(Nc1ccc(-c2ccccc2F)c(F)c1)[C@@H]1[C@H](c2ccnc(F)c2Cl)[C@@H]2CC[C@H]1O2 [Compound 95]	0.18 µM
O=C(Nc1ccc(-c2ccccc2F)c(F)c1)C1=C(c2ccnc(F)c2Cl)[C@@H]2CCC1O2 [Compound 97]	22.6 µM
O=C(Nc1ccc(-c2ccccc2)c(Cl)c1)[C@@H]1[C@@H](c2ccncc2)[C@@H]2CC[C@H]1O2 [Compound 98]	> 33 µM
O=C(Nc1ccc(-c2ccccc2)c(Cl)c1)[C@H]1[C@@H](c2ccncc2)[C@@H]2CC[C@H]1O2 [Compound 104]	> 33 µM
O=C(Nc1ccc(-c2ccccc2F)c(F)c1)C1=C(c2ccncc2F)[C@@H]2CCC1O2 [Compound 109]	> 33 µM
O=C(Nc1ccc(-c2ccc(F)cc2F)c(F)c1)[C@@H]1[C@@H](c2ccncc2)[C@@H]2CC[C@H]1O2 [Compound 111]	> 33 µM
O=C(Nc1ccc(-c2ccccc2F)c(F)c1)C1=C(c2cc(Cl)nc(Cl)c2)[C@@H]2CC[C@H]1O2 [Compound 116]	0.12 µM
O=C(Nc1ccc(Cl)c(Cl)c1)[C@@H]1[C@@H](c2ccncc2)[C@@H]2CC[C@H]1O2 [Compound 118, (1R,2R,3S,4S)—N-(3,4-dichlorophenyl)-3-(pyridin-4-yl)-7-oxabicyclo[2.2.1]heptane-2-carboxamide]	> 33 µM
O=C(Nc1ccc(-c2ccccc2)cc1)[C@H]1[C@@H](c2cccnc2)[C@H]2CC[C@@H]1O2 [Compound 121]	> 23 µM
Cn1ccc([C@@H]2[C@H](C(=O)Nc3ccc(-c4ccccc4)cc3)[C@@H]3CC[C@H]2O3)n1 [Compound 122]	> 33 µM
O=C(Nc1ccc(-c2ccccc2Cl)c(F)c1)[C@H]1[C@@H](c2cccc(C(F)(F)F)n2)[C@H]2CC[C@@H]1O2 [Compound 123]	> 11 µM
CCOC(=O)c1ccc(NC(=O)C2=C(c3cccc(C(F)(F)F)n3)[C@@H]3CCC2O3)cc1 [Compound 129]	> 33 µM
